The results in this text go back to paper PMC12751012, “Nanoscale Direct-to-Biology Optimization and Structural Insights into Selective S. aureus TrmD Inhibitors” (Journal of Medicinal Chemistry, 2025).

One assay concerns the target T1, S. aureus TrmD (Staphylococcus aureus, UniProt Q2FZ43).
T1 construct: made in house; host or cells: E. coli BL21
T1 sequence (Q2FZ43 1-245): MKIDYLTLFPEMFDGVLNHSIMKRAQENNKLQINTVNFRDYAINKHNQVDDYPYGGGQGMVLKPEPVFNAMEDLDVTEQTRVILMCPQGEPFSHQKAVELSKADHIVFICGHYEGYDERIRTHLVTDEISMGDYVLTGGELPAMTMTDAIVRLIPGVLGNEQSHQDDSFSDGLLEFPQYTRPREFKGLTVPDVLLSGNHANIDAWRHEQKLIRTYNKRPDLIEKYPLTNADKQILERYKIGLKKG
Briefly: nanoSAR direct-to-biology FP displacement screening of crude triazoles. The format is binding. The note with it: crude triazole at 1 μM, assuming full conversion; 500 nM TrmD, 10 nM tracer 4. In short, it runs like this:
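S. aureus TrmD (500 nM) with tracer 4 (10 nM) in Tris/NaCl/MgCl2/glycerol buffer, pH 7.5, was challenged with unpurified triazoles from in situ CuAAC of alkyne 7 with a 320-member azide library.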
Regarding `C[C@H](N)Cn1cc(-c2c[nH]c3nc[nH]c(=O)c23)nn1` [Compound 03F01, O=C1NC=NC=2NC=C(C=3N=NN(C3)C[C@@H]([NH3+])C)C12], the “% displaced tracer” value was 56%.

The assay is the same for the next values; noted with them: crude triazole at 1 μM, assuming full conversion; 500 nM TrmD, 10 nM tracer 4; read-out: % displaced tracer.
For the compound `Cc1nc2cc(-n3cc(-c4c[nH]c5nc[nH]c(=O)c45)nn3)ccc2[nH]1` [Compound 03G03, O=C1NC=NC=2NC=C(C=3N=NN(c4cc5N=C(Nc5cc4)C)C3)C12], the inhibition at 1 µM amounted to 21%.
For the compound `O=c1[nH]cnc2[nH]cc(-c3cn(-c4ccccc4-c4ccccc4)nn3)c12` [Compound 01E12, O=C1NC=NC=2NC=C(C=3N=NN(c4c(c5ccccc5)cccc4)C3)C12], the inhibition at 1 µM came to 34%.
For the compound `CN(CCn1cc(-c2c[nH]c3nc[nH]c(=O)c23)nn1)Cc1cccc(F)c1` [Compound 02H12, Fc1cc(ccc1)C[N@H+](CCN2N=NC(C=3C=4C(=O)NC=NC4NC3)=C2)C], the inhibition at 1 µM was 65%.
`O=c1[nH]cnc2[nH]cc(-c3cn(Cc4cn5ccccc5n4)nn3)c12` [Compound 01E04, O=C1NC=NC=2NC=C(C=3N=NN(C3)CC=4N=C5N(C4)C=CC=C5)C12]: the inhibition at 1 µM came out at 46%.
For `N[C@H]1CC[C@H](n2cc(-c3c[nH]c4nc[nH]c(=O)c34)nn2)CC1` [Compound 02D09, O=C1NC=NC=2NC=C(C=3N=NN(C3)[C@@H]4CC[C@@H]([NH3+])CC4)C12], the inhibition at 1 µM came out at 21%.
Take `O=c1[nH]cnc2[nH]cc(-c3cn(CCCCF)nn3)c12` [Compound 01B09, FCCCCN1N=NC(C=2C=3C(=O)NC=NC3NC2)=C1]: the inhibition at 1 µM stood at 19%.
As to `CC(C)(C)OC(=O)NC[C@@]1(Cn2cc(-c3c[nH]c4nc[nH]c(=O)c34)nn2)CC12CCC2` [Compound 02E10, O=C(OC(C)(C)C)NC[C@@]1(C2(C1)CCC2)CN3N=NC(C=4C=5C(=O)NC=NC5NC4)=C3], the inhibition at 1 µM is 23%.
As to `Cc1ccc([C@@H](O)Cn2cc(-c3c[nH]c4nc[nH]c(=O)c34)nn2)cc1` [Compound 03D01, O=C1NC=NC=2NC=C(C=3N=NN(C3)C[C@H](O)c4ccc(cc4)C)C12], the inhibition at 1 µM came to 65%.
In the case of `Cn1cc(-n2cc(-c3c[nH]c4nc[nH]c(=O)c34)nn2)cn1` [Compound 01E10, O=C1NC=NC=2NC=C(C=3N=NN(C=4C=NN(C4)C)C3)C12], the inhibition at 1 µM was found to be 17%.
Still for that read-out and setting: next, `O=c1[nH]cnc2[nH]cc(-c3cn([C@H]4CCCCC[C@@H]4O)nn3)c12` [Compound 02E03, O=C1NC=NC=2NC=C(C=3N=NN(C3)[C@@H]4[C@@H](O)CCCCC4)C12]: 10%.
As for `O=c1[nH]cnc2[nH]cc(-c3cn(CCP(=O)(O)O)nn3)c12` [Compound 03C01, P([O-])([O-])(=O)CCN1N=NC(C=2C=3C(=O)NC=NC3NC2)=C1], the inhibition at 1 µM came out at 28%.
Still for that read-out and setting: next, `CN(C)c1cccc(OCCCn2cc(-c3c[nH]c4nc[nH]c(=O)c34)nn2)c1` [Compound 03E12, O=C1NC=NC=2NC=C(C=3N=NN(C3)CCCOc4cc(N(C)C)ccc4)C12]: 80%; `Cc1nc(C)c(Cn2cc(-c3c[nH]c4nc[nH]c(=O)c34)nn2)o1` [Compound 03B08, O=C1NC=NC=2NC=C(C=3N=NN(C3)CC=4OC(=NC4C)C)C12]: 50%; `CS(=O)(=O)NC(=O)Cn1cc(-c2c[nH]c3nc[nH]c(=O)c23)nn1` [Compound 01G12, S(=O)(=O)(NC(=O)CN1N=NC(C=2C=3C(=O)NC=NC3NC2)=C1)C]: 27%.
Turning to `O=c1[nH]cnc2[nH]cc(-c3cn(-c4ccc(O)cc4)nn3)c12` [Compound 01G09, O=C1NC=NC=2NC=C(C=3N=NN(c4ccc(O)cc4)C3)C12], the inhibition at 1 µM was 23%.
Turning to `COc1ccc(Cn2cc(-c3c[nH]c4nc[nH]c(=O)c34)nn2)cc1` [Compound 02E05, O=C1NC=NC=2NC=C(C=3N=NN(C3)Cc4ccc(OC)cc4)C12], the inhibition at 1 µM worked out at 78%.
The same measure, in the same setting: next, `C[C@H](c1ccccc1Cl)n1cc(-c2c[nH]c3nc[nH]c(=O)c23)nn1` [Compound 02H09, Clc1c(cccc1)[C@H](N2N=NC(C=3C=4C(=O)NC=NC4NC3)=C2)C]: 44%; `O=c1[nH]cnc2[nH]cc(-c3cn(-c4nccs4)nn3)c12` [Compound 02D03, S1C(=NC=C1)N2N=NC(C=3C=4C(=O)NC=NC4NC3)=C2]: 7%.
Consider `O=c1[nH]cnc2[nH]cc(-c3cn(C[C@H](O)c4ccccc4)nn3)c12` [Compound 04F03, O=C1NC=NC=2NC=C(C=3N=NN(C3)C[C@H](O)c4ccccc4)C12], for which the inhibition at 1 µM came to 57%.
As to `COCC(COC)n1cc(-c2c[nH]c3nc[nH]c(=O)c23)nn1` [Compound 03D06, O=C1NC=NC=2NC=C(C=3N=NN(C3)C(COC)COC)C12], the inhibition at 1 µM was 24%.
On to `O=c1[nH]cnc2[nH]cc(-c3cn(C[C@@H]4COCCO4)nn3)c12` [Compound 03A10, O=C1NC=NC=2NC=C(C=3N=NN(C3)C[C@H]4OCCOC4)C12], for which the inhibition at 1 µM was 57%.
In the case of `O=c1[nH]cnc2[nH]cc(-c3cn(-c4ccc5c(c4)CCO5)nn3)c12` [Compound 01B03, O=C1NC=NC=2NC=C(C=3N=NN(c4cc5c(OCC5)cc4)C3)C12], the inhibition at 1 µM is 52%.
For the compound `O=c1[nH]cnc2[nH]cc(-c3cn(-c4ccc5c(c4)CNCC5)nn3)c12` [Compound 01G04, O=C1NC=NC=2NC=C(C=3N=NN(c4cc5c(cc4)CC[NH2+]C5)C3)C12], the inhibition at 1 µM stood at 33%.
In the case of `CO[C@H]1COC[C@@H]1n1cc(-c2c[nH]c3nc[nH]c(=O)c23)nn1` [Compound 04D03, O=C1NC=NC=2NC=C(C=3N=NN(C3)[C@@H]4[C@@H](OC)COC4)C12], the inhibition at 1 µM is 37%.
Turning to `O=c1[nH]cnc2[nH]cc(-c3cn(-c4cc(F)ccc4F)nn3)c12` [Compound 02F10, Fc1c(N2N=NC(C=3C=4C(=O)NC=NC4NC3)=C2)cc(F)cc1], the inhibition at 1 µM is 15%.
Consider `O=C1NC[C@@H](Cn2cc(-c3c[nH]c4nc[nH]c(=O)c34)nn2)O1` [Compound 02F04, O=C1O[C@H](CN2N=NC(C=3C=4C(=O)NC=NC4NC3)=C2)CN1], for which the inhibition at 1 µM came out at 45%.
Consider `O=c1[nH]cnc2[nH]cc(-c3cn(C[C@@H]4CC[C@H]4C(F)(F)F)nn3)c12` [Compound 01C12, FC(F)(F)[C@H]1[C@H](CN2N=NC(C=3C=4C(=O)NC=NC4NC3)=C2)CC1], for which the inhibition at 1 µM was 47%.
Same read-out and setting: as for `CC(C)(C)OC(=O)N1CC[C@H](C2CC2)[C@H]1Cn1cc(-c2c[nH]c3nc[nH]c(=O)c23)nn1` [Compound 04C03, O=C(OC(C)(C)C)N1[C@@H]([C@@H](C2CC2)CC1)CN3N=NC(C=4C=5C(=O)NC=NC5NC4)=C3], the figure is 52%; as for `O=c1[nH]cnc2[nH]cc(-c3cn([C@@H]4CCc5c(F)cccc54)nn3)c12` [Compound 03H04, Fc1c2c(ccc1)[C@H](N3N=NC(C=4C=5C(=O)NC=NC5NC4)=C3)CC2], 68%; as for `Cc1cc(C)cc(-n2cc(-c3c[nH]c4nc[nH]c(=O)c34)nn2)c1` [Compound 03B05, O=C1NC=NC=2NC=C(C=3N=NN(c4cc(cc(c4)C)C)C3)C12], 24%.
Still for that read-out and setting: as for `Cc1ccc(Cn2cc(-c3c[nH]c4nc[nH]c(=O)c34)nn2)o1` [Compound 01H03, O=C1NC=NC=2NC=C(C=3N=NN(C3)CC=4OC(=CC4)C)C12], the figure is 33%; as for `N[C@H]1C[C@@H](n2cc(-c3c[nH]c4nc[nH]c(=O)c34)nn2)C1` [Compound 02G12, O=C1NC=NC=2NC=C(C=3N=NN(C3)[C@@H]4C[C@H]([NH3+])C4)C12], 31%.
Still for that read-out and setting: as for `CC(C)C(=O)NCCn1cc(-c2c[nH]c3nc[nH]c(=O)c23)nn1` [Compound 02D07, O=C1NC=NC=2NC=C(C=3N=NN(C3)CCNC(=O)C(C)C)C12], the figure is 41%.
On to `COc1cccc(C2(n3cc(-c4c[nH]c5nc[nH]c(=O)c45)nn3)CCC2)c1` [Compound 01A12, O=C1NC=NC=2NC=C(C=3N=NN(C3)C4(c5cc(OC)ccc5)CCC4)C12], for which the inhibition at 1 µM was 10%.
Regarding `O=c1[nH]cnc2[nH]cc(-c3cn(Cc4cccc5ccccc45)nn3)c12` [Compound 01F10, O=C1NC=NC=2NC=C(C=3N=NN(C3)Cc4c5c(ccc4)cccc5)C12], the inhibition at 1 µM came out at 84%.
As for `O=c1[nH]cnc2[nH]cc(-c3cn(Cc4cc(C(F)(F)F)on4)nn3)c12` [Compound 01H04, FC(F)(F)C=1ON=C(C1)CN2N=NC(C=3C=4C(=O)NC=NC4NC3)=C2], the inhibition at 1 µM was 22%.
Same read-out and setting: as for `Cc1nc2ccc(-n3cc(-c4c[nH]c5nc[nH]c(=O)c45)nn3)cc2s1` [Compound 01F07, S1c2c(N=C1C)ccc(N3N=NC(C=4C=5C(=O)NC=NC5NC4)=C3)c2], the figure is 11%; as for `O=c1[nH]cnc2[nH]cc(-c3cn(Cc4cnns4)nn3)c12` [Compound 03G02, S1N=NC=C1CN2N=NC(C=3C=4C(=O)NC=NC4NC3)=C2], 73%.
Consider `O=c1[nH]cnc2[nH]cc(-c3cn(Cc4cn5cccnc5n4)nn3)c12` [Compound 02C07, O=C1NC=NC=2NC=C(C=3N=NN(C3)CC=4N=C5N=CC=CN5C4)C12], for which the inhibition at 1 µM was determined as 82%.
Turning to `O=c1[nH]cnc2[nH]cc(-c3cn(-c4cccc5ccncc45)nn3)c12` [Compound 03F04, O=C1NC=NC=2NC=C(C=3N=NN(c4c5c(ccnc5)ccc4)C3)C12], the inhibition at 1 µM was 22%.
On the same count and under the same terms, next, `N#CC1(Cn2cc(-c3c[nH]c4nc[nH]c(=O)c34)nn2)CCCC1` [Compound 01F01, O=C1NC=NC=2NC=C(C=3N=NN(C3)CC4(C#N)CCCC4)C12]: 74%; `O=c1[nH]cnc2[nH]cc(-c3cn(-c4ccc5c(c4)OCO5)nn3)c12` [Compound 03C05, O=C1NC=NC=2NC=C(C=3N=NN(c4cc5OCOc5cc4)C3)C12]: 59%.
